Where a name gives a salt, the structure may show the parent alone.
Experiments:
male SA rats [1] = experiment: rat skin lesion model, inhibition of neutrophil accumulation induced by carrageenan; type: in vivo
Protocol: The dorsal skin of male SA rats was shaved and carrageenan (Type λ) or phosphate-buffered saline was injected intradermally. Three hours later, the injection sites were biopsied and weighed. Neutrophil content of the skin biopsies was measured as the quantity of myeloperoxidase (MPO) present in a tissue homogenate. The excised, weighed skin pieces were placed in 4 ml 0.5% mixed alkyl trimethylammonium bromide and homogenized at the highest speed for 15 seconds in a Polytron homogenizer (Brinkmann Instruments, Westbury, N.Y.). Lipids were extracted by adding 1 ml of dichloromethane to the homogenate, vortexing vigorously, and centrifuging at 1000 g, 5° C. for 15 min. Fifty μl of each supernatant was added in duplicate to a 96 well assay plate, along with dilutions of human myeloperoxidase standard. Potassium phosphate buffer (pH 6.1) containing 0.36 mg/ml of o-dianisidine dihydrochloride and 0.001% hydrogen peroxide was added (200 μl/well), and the absorbance at 450 nm was read after 5 min incubation at room temperature. The myeloperoxidase content of each skin piece was calculated from a standard curve constructed using least-square regression, and expressed as units of MPO/g of tissue.
AK inhibitors were administered orally using polyethylene glycol-400 as vehicle or intraperitoneally using dimethylsulfoxide as vehicle, at indicated time before skin lesion injection. For each experiment, the average of all values from saline-induced lesions was calculated. This baseline value was then subtracted from values obtained from carrageenan-induced lesions. Percent inhibition for AK inhibitors were calculated from these baseline-corrected values.

Rats (male, Simonsen) = experiment: formalin paw model; type: in vivo, rat; parameters: concentration or dose not given beside the values; settings: oral, 90 min before formalin; for % Inhibition Phase 1 Composite score: 1.7-5 min post-formalin; for % Inhibition Phase 2 Composite score: 10.3-30 min post-formalin
Protocol: In this assay, injection of formalin, an irritant, into the hindpaw of rats typically evokes a biphasic response of pain-related behaviors. Phase 1 of the response which is brief, lasting approximately 0-5 min post-injection,is followed by a more prolonged phase 2, lasting approximately 10-80 min post-injection. Phase 1 behavior is thought to be a direct effect of the irritant on nociceptors at the injection site while phase 2 behavior is thought to include a hyperalgesic component mediated by sensitization of neuronal elements within the spinal cord. Studies from other laboratories have found the first portion of Phase 2 (sometimes referred to as Phase 2a) to be most responsive to pharmacological manipulation.
Rats (male, Simonsen) weighing between 100-200 g, are used in the present experiments. For screening purposes drugs are administered orally 90 min prior to initiation of formalin test. At designated intervals the animals in groups of 4 are placed individually in a small animal restrainer with the right hindpaw accessible through a hole in the bottom of the restrainer. The formalin paw assay is initiated by the injection using a 30G needle of 50 μl of a 5% formalin solution in saline into the right plantar surface of each hindpaw. The rat is then immediately placed in a separate plexiglass box and scoring (described below) of the animal's behavior is begun at 1.7 min after formalin injection. The instantaneous behavior of each animal in a group of 4 was observed and assigned a score once in each 20 second interval. This sequence is repeated over a 30 min period. The scoring protocol is an adaptation of the method published by Dubuisson and Dennis (Pain 4:161-174, 1977) which assigns a score from 0-3 as follows:
0--no discernible favoring of injected paw, weight evenly distributed
1--injected paw is favored, rests lightly on floor
2--injected paw is elevated
3--injected paw is vigorously licked, bitten or shake
Scores are continuously recorded directly onto an Excel spreadsheet. […] 2) the total number of incidences specifically of licking/biting behavior is summed over Phase 2 and mean values determined from 6 different animals with results expressed as % inhibition compared to vehicle control.

Rats = experiment: anti-inflammatory activity, carrageenan paw; type: in vivo, rat; settings: 10 mg/kg, swelling after 3 hours; for Carrageenan Paw (% inh) i.p.: 30 min before carrageenan; for Carrageenan Paw (% inh) p.o.: 1 h before carrageenan
Protocol: Carrageenan (Type λ) was suspended in sterile PBS at 1% (w/v), autoclaved for 30 minutes, and stored at room temperature. Rats were pretreated with vehicle or AK inhibitor (10 mg/kg) by oral gavage or i.p. administration and the volume of the left hind paw was measured using a water displacement plethysmometer (Stoelting Co., Wood Dale, Ill.). One hour after oral treatment or 30 minutes after i.p. treatment, the rats were briefly anaesthetized, and 0.1 ml of the carrageenan solution was injected subcutaneously into the planar surface of the left hind paw. The ensuing paw swelling was measured by plethysmometry after 3 hours. The paw volume in milliliters was subtracted from the pre-injection paw volume. Data are presented in Table 8 as the percent inhibition of paw swelling in AK inhibitor treated animals, compared to vehicle treated control animals.

adenosine kinase = adenosine kinase (AK) inhibition; type: biochemical, pig heart or recombinant human; settings: 0.5 μM [U-14C] adenosine, pH 7.0, 20 minutes
Protocol: Adenosine kinase activity was measured essentially as described by Yamada et al. (Yamada, Y., Goto, H., Ogasawara, N. (1988) Biochim. Biophys. Acta 660, 36-43.) with a few minor modifications. […] Natl. Acad. Sci. […] The reactions were incubated for 20 minutes at […] The assay was quenched upon spotting 30 μL aliquots onto 2 cm^2 pieces of Whatman DE81 anion exchange paper. The papersquares were washed for 3 minutes in 6 L distilled/deionized water to remove the unreacted adenosine. The washed squares were rinsed in 95% ethanol and dried in an oven at 100° C. for 10 minutes. The amount of ^14 C-AMP was quantified by scintillation counting.

Female SA rats = experiment: liver toxicity, serum SGOT, SGPT and total bilirubin; type: in vivo, rat; parameters: unit not given here; settings: 2 x 37.5 μmol/kg i.v. infusion (total 75 μmol/kg), 12 h after second dose
Protocol: Female SA rats (150-200 g) were anesthetized with halothane and cannulated via the internal jugular vein. The animals were allowed to recover for 3 days. […] Twelve hours later, an additional 37.5 μmol kg was infused over 40 minutes (total dose=75 μmol/kg). Twelve hours after the second dose, the animals were anesthetized with halothane and exsanguinated through the descending aorta. Serum was prepared and liver enzymes (serum glutamic-oxaloacetic transaminase (SGOT), serum glutamic-pyruvic transaminase (SGPT)) and total bilirubin in the serum samples were determined by a commercial laboratory.

male SA rats [2] = experiment: anticonvulsant activity, maximal electroshock (MES) model; type: in vivo; settings: Rattus norvegicus, ip, 1 h before MES; >5 / <5: fewer / more than 50% of animals inhibited at 5 mg/kg in initial screen
Protocol: The anticonvulsant activity of the tested compounds was evaluated in male SA rats (100-150 g, Simonsen) using the maximal electroshock (MES) model described in Swinyard et al., Antiepileptic Drugs, 3d Ed. at 85-102 (Levy, et al., eds.), NY: Raven Press (1989). The rats were maintained on a 12/12 light/dark cycle in temperature controlled facilities with free access to food and water. For p.o. administration, the animals are fasted overnight, prior to the experiment. One hour prior to seizure testing, the animals were injected interperitoneally (ip) or orally (per os, po) with one of various doses of test compound dissolved in DMSO or PEG 400.
Maximal electroshock seizures (MES) were induced by administering a 150 mA, 60 Hz current for 0.2 seconds via corneal electrodes using a Wahlquist Model H stimulator. […] This endpoint was expressed as the percentage of animals in which the response was inhibited. Typically, compounds were screened initially at one hour following a dose of 5 mg/kg ip. […] The results for exemplary compounds of the invention are set forth in Table 8, expressed as ED50 values.

Compound	IC50 (adenosine kinase) [nM]	Carrageenan Paw (% inh) i.p. (Rats) [%]	average serum Total Bilirubin (Female SA rats)	average serum content of SGOT (Female SA rats)	average serum content of SGPT (Female SA rats)	Carrageenan Paw (% inh) p.o. (Rats) [%]	ED50 at 5 mg/kg (male SA rats [2]) [mg/kg]	other results
O[C@@H]1[C@H](O)CO[C@H]1n1cc(-c2ccc(F)cc2)c2c(Nc3ccc(F)cc3)ncnc21 [#29]			0.16	130	30			
CN(C)Cc1ccc(Nc2ncnc3c2c(-c2ccccc2)cn3[C@@H]2O[C@@](C)(CO)[C@@H](O)[C@H]2O)cc1 [compound 64]	70						> 5	
C[C@]1(CO)O[C@@H](n2cc(-c3ccccc3)c3c(Nc4ccccc4)ncnc32)[C@H](O)[C@@H]1O [compound 81]	2000							
Nc1ncnc2c1c(I)cn2[C@@H]1OC2(CC2)[C@@H](O)[C@H]1O [compound 175]	600							
COC[C@]1(CO)O[C@@H](n2cc(-c3ccccc3)c3c(Nc4ccc(F)cc4)ncnc32)[C@H](O)[C@@H]1O [compound 352]	400							
NC[C@]1(CO)O[C@@H](n2cc(-c3ccccc3)c3c(Nc4ccc(F)cc4)ncnc32)[C@H](O)[C@@H]1O [compound 392]	1100							
O[C@@H]1[C@H](O)CO[C@H]1n1nc(-c2ccc(Cl)cc2)c2c(Nc3ccccc3)ncnc21 [compound 432]	90	24				15	> 5	

More lines, main results first:

IC50 (adenosine kinase) [nM]	Compound	Carrageenan Paw (% inh) i.p. (Rats) [%]	average serum Total Bilirubin (Female SA rats)	average serum content of SGOT (Female SA rats)	average serum content of SGPT (Female SA rats)	Carrageenan Paw (% inh) p.o. (Rats) [%]	ED50 at 5 mg/kg (male SA rats [2]) [mg/kg]	other results
45	4-N-Phenylamino-5-phenyl-7-(4-C-methyl-β-D-ribofuranosyl)pyrrolo[2,3- d]pyrimidine [#81]	46						% inhibition of neutrophil accumulation (male SA rats [1]; p.o., pretreatment 60 min, 10 mg/kg): 0%; % inhibition of neutrophil accumulation (male SA rats [1]; p.o., pretreatment 60 min, 20 mg/kg): 26%; % inhibition of neutrophil accumulation (male SA rats [1]; p.o., pretreatment 60 min, 30 mg/kg): 40%; % Inhibition Phase 1 Composite score (Rats (male, Simonsen)): 24.8%; % Inhibition Phase 2 Composite score (Rats (male, Simonsen)): 35.1%; % Inhibition Phase 2. Licking/biting (Rats (male, Simonsen)): 67.8%
3.5	O[C@@H]1[C@H](O)CO[C@H]1n1cc(-c2ccccc2)c2c(Nc3ccc(CCN4CCNCC4)cc3)ncnc21 [#43, 4-N-[4-(2-(1-Piperazino)ethyl)phenyl]amino-5-phenyl-7-(β-D-erythrofuranosyl)pyrrolo[2,3-d]pyrimidine trihydrochloride salt]	65	0.1	99	58	34		
1.2	OCC1(CO)O[C@@H](n2cc(-c3ccccc3)c3c(Nc4ccccc4)ncnc32)[C@H](O)[C@@H]1O [compound 1]	3	0.1	65	53	18		
4	O[C@@H]1[C@H](O)CO[C@H]1n1cc(-c2ccccc2)c2c(Nc3ccccc3)ncnc21 [compound 27]	44	0.14	114	41	12	< 5	% inhibition of neutrophil accumulation (male SA rats [1]; i.p., pretreatment 30 min, 3 mg/kg): 2%; % inhibition of neutrophil accumulation (male SA rats [1]; i.p., pretreatment 30 min, 10 mg/kg): 59%; % inhibition of neutrophil accumulation (male SA rats [1]; i.p., pretreatment 30 min, 30 mg/kg): 89%; % inhibition of neutrophil accumulation (male SA rats [1]; i.p., pretreatment 60 min, 10 mg/kg): 60%; % inhibition of neutrophil accumulation (male SA rats [1]; i.p., pretreatment 120 min, 10 mg/kg): 14%; % inhibition of neutrophil accumulation (male SA rats [1]; i.p., pretreatment 180 min, 10 mg/kg): 2%; % inhibition of neutrophil accumulation (male SA rats [1]; i.p., pretreatment 240 min, 10 mg/kg): 0%; % inhibition of neutrophil accumulation (male SA rats [1]; i.p., pretreatment 360 min, 10 mg/kg): 0%; % Inhibition Phase 1 Composite score (Rats (male, Simonsen)): 25.5%; % Inhibition Phase 2 Composite score (Rats (male, Simonsen)): 47.6%; % Inhibition Phase 2. Licking/biting (Rats (male, Simonsen)): 77.5%
0.3	O[C@H]1[C@H](n2cc(-c3ccccc3)c3c(Nc4ccc(F)cc4)ncnc32)OC2(CC2)[C@H]1O [compound 150]	78	1.58	560	155	80	0.23	
40	O[C@@H]1[C@H](O)CO[C@H]1n1cc(-c2ccccc2)c2c(Nc3ccc(Cl)cc3)ncnc21 [compound 299]	20				28		
6	Nc1ncnc2c1c(I)cn2[C@@H]1OC[C@@H](O)[C@H]1O [compound 300]	90				91		
1	O[C@@H]1[C@H](O)CO[C@H]1n1cc(-c2ccccc2)c2c(Nc3ccc(CCN4CCOCC4)cc3)ncnc21 [compound 301]	21				39		
24	COC[C@@]1(CO)O[C@@H](n2cc(-c3ccccc3)c3c(Nc4ccc(F)cc4)ncnc32)[C@H](O)[C@@H]1O [compound 372]						> 5	
